Source: patent publication US20230072683A1, “PYRIDO-PYRIMIDIN DERIVATIVES AND PHARMACEUTICAL COMPOSITION, FOR USE IN PREVENTING OR TREATING PI3 KINASE RELATED DISEASES, COMPRISING SAME AS ACTIVE INGREDIENT” (BORYUNG PHARMACEUTICAL CO., LTD, priority 2019, published 2023)

What was measured:
[1] = biological target: PI3K-δ (PI3K(p1108/p857) (h)) (Homo sapiens, UniProt O00329); assay: Evaluation of inhibitory activity against PI3K-δ (HTRF kinase assay); type: biochemical; settings: compound concentration 0.01 μM; read-out: EXP_VALUE(% Inhibition) PI3K-δ 0.01 μM
Procedure, shortened: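 HTRF read-out (665/620 nm ratio ×10000) used Eu-labelled anti-GST, GST-tagged GRP1 PH domain and streptavidin-allophycocyanin after EDTA/PIP3 stop.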

[2] = biological target: DNA-PK(h) (Homo sapiens, UniProt P78527); assay: Evaluation of inhibitory activity against DNA-PK (HTRF kinase assay, GST-cMyc-p53 substrate); type: biochemical; settings: compound concentration 0.01 μM; read-out: EXP_VALUE(% Inhibition) DNA-PK(h) 0.01 μM
Procedure, shortened: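 Human DNA-PK with 50 μM GST-cMyc-p53 substrate; reaction started with Mg/ATP, run 30 min at room temperature, stopped with EDTA. Phospho-Ser15 p53 detected by HTRF (Eu anti-phospho-Ser15, d2 anti-GST), signal = 10000×(Em 665/Em 620).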

Sequence of PI3K-δ (PI3K(p1108/p857) (h)) (O00329 whole entry, the tested form may be a part): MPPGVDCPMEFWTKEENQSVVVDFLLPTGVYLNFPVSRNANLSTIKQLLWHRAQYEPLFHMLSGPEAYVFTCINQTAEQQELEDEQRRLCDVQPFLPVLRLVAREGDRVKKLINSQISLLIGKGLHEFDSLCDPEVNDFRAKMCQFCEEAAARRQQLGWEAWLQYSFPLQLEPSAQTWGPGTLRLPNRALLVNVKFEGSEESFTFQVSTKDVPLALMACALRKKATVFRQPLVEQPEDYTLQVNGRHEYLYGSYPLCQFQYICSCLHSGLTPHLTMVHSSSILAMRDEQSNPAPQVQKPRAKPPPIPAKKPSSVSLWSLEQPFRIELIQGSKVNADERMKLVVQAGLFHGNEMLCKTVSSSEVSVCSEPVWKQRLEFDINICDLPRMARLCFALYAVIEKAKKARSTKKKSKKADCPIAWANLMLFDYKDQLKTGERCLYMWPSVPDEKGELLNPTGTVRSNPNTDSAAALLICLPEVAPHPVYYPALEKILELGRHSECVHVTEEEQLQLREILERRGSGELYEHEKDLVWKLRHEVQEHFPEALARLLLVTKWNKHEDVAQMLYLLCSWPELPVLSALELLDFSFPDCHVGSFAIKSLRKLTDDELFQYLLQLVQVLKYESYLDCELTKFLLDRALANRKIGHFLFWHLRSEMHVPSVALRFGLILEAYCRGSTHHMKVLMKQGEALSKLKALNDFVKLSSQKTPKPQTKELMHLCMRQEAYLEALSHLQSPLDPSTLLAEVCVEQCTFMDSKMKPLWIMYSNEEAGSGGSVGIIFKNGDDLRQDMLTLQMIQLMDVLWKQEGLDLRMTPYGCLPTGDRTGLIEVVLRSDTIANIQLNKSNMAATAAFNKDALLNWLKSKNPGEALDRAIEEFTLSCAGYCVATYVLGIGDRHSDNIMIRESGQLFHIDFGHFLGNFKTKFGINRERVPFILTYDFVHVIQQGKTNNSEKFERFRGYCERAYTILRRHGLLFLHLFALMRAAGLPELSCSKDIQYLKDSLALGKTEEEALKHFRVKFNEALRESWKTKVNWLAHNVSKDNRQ
Sequence of PI3K-δ (PI3K(p1108/p857) (h)) (P27986 whole entry partner, the tested form may be a part): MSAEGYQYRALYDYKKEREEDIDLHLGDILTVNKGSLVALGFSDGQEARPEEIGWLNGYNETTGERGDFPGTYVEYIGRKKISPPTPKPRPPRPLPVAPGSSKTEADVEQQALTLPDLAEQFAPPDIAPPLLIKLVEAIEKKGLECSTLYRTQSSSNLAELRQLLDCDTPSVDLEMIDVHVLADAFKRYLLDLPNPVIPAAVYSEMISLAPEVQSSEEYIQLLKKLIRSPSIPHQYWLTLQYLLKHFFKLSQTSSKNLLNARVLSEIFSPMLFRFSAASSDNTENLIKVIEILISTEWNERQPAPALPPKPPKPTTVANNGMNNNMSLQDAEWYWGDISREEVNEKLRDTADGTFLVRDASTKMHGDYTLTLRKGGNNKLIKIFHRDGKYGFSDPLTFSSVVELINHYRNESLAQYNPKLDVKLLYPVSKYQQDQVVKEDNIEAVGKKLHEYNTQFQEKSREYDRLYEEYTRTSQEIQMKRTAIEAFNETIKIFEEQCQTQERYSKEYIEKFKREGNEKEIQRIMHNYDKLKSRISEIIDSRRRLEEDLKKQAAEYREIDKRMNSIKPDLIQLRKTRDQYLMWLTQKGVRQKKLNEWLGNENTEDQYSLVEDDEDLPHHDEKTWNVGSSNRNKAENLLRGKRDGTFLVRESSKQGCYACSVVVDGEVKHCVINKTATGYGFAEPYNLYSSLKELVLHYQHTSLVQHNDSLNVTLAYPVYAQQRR

Structure (SMILES)	inhibition at 0.01 µM [1] [%]	inhibition at 0.01 µM [2] [%]
CC(C)c1ncncc1-c1cccc2c(Cl)c([C@H](C)Nc3ncnc4[nH]ccc(=O)c34)n(-c3ccccc3)c(=O)c12 [Example 215, (S)-4-((1-(4-chloro-8-(4-isopropylpyrimidin-5-yl)-1-oxo-2-phenyl-1,2-dihydroisoquinolin-3-yl)ethyl)amino)pyrido[2,3-d]pyrimidin-5(8H)-one]	73	44
C[C@H](Nc1ncnc2[nH]ccc(=O)c12)c1c(Cl)c2cccc(-c3cnc(N4CCN(C)CC4)nc3)c2c(=O)n1-c1ccccc1 [Example 216, (S)-4-((1-(4-chloro-8-(2-(4-methylpiperazin-1-yl)pyrimidin-5-yl)-1-oxo-2-phenyl-1,2-dihydroisoquinolin-3-yl)ethyl)amino)pyrido[2,3-d]pyrimidin-5(8H)-one]	96	75
CCN(CC)c1ncc(-c2cccc3c(Cl)c([C@H](C)Nc4ncnc5[nH]ccc(=O)c45)n(-c4ccccc4)c(=O)c23)cn1 [Example 217, (S)-4-((1-(4-chloro-8-(2-(diethylamino)pyrimidin-5-yl)-1-oxo-2-phenyl-1,2-dihydroisoquinolin-3-yl)ethyl)amino)pyrido[2,3-d]pyrimidin-5(8H)-one]	71	66
C[C@H](Nc1ncnc2[nH]ccc(=O)c12)c1c(Cl)c2cccc(-c3cncc(S(C)(=O)=O)c3)c2c(=O)n1-c1ccccc1 [Example 218, (S)-4-((1-(4-chloro-8-(5-(methylsulfonyl)pyridin-3-yl)-1-oxo-2-phenyl-1,2-dihydroisoquinolin-3-yl)ethyl)amino)pyrido[2,3-d]pyrimidin-5(8H)-one]	99	85
C[C@H](Nc1ncnc2[nH]ccc(=O)c12)c1c(Cl)c2cccc(-c3ccc(S(C)(=O)=O)nc3)c2c(=O)n1-c1ccccc1 [Example 219, (S)-4-((1-(4-chloro-8-(6-(methylsulfonyl)pyridin-3-yl)-1-oxo-2-phenyl-1,2-dihydroisoquinolin-3-yl)ethyl)amino)pyrido[2,3-d]pyrimidin-5(8H)-one]	97	82
CC(C)Nc1ncc(-c2cccc3c(Cl)c([C@H](C)Nc4ncnc5[nH]ccc(=O)c45)n(-c4ccccc4)c(=O)c23)cn1 [Example 220, (S)-4-((1-(4-chloro-8-(2-(isopropylamino)pyrimidin-5-yl)-1-oxo-2-phenyl-1,2-dihydroisoquinolin-3-yl)ethyl)amino)pyrido[2,3-d]pyrimidin-5(8H)-one]	87	73
COc1cnc(-c2cccc3c(Cl)c([C@H](C)Nc4ncnc5[nH]ccc(=O)c45)n(-c4ccccc4)c(=O)c23)cn1 [Example 221, (S)-4-((1-(4-chloro-8-(5-methoxypyrazin-2-yl)-1-oxo-2-phenyl-1,2-dihydroisoquinolin-3-yl)ethyl)amino)pyrido[2,3-d]pyrimidin-5(8H)-one]	67	27
C[C@H](Nc1ncnc2[nH]ccc(=O)c12)c1c(Cl)c2cccc(-c3cnc(N4CCCC4)nc3)c2c(=O)n1-c1ccccc1 [Example 222, (S)-4-((1-(4-chloro-1-oxo-2-phenyl-8-(2-(pyrrolidin-1-yl)pyrimidin-5-yl)-1,2-dihydroisoquinolin-3-yl)ethyl)amino)pyrido[2,3-d]pyrimidin-5(8H)-one]	75	55
C[C@H](Nc1ncnc2[nH]ccc(=O)c12)c1c(Cl)c2cccc(-c3ccc(OC(F)(F)F)nc3)c2c(=O)n1-c1ccccc1 [Example 223, (S)-4-((1-(4-chloro-1-oxo-2-phenyl-8-(6-(trifluoromethoxy)pyridin-3-yl)-1,2-dihydroisoquinolin-3-yl)ethyl)amino)pyrido[2,3-d]pyrimidin-5(8H)-one]	68	34
